According to patent publication US12655116B2, “Substituted isophthalic acid diamides” (Bayer Aktiengesellschaft, priority 2020, dated 2026):

What was measured:
ABUTH [1] = assay: Post-emergence herbicidal action against ABUTH; assay type: in vivo, Abutilon theophrasti; settings: Abutilon theophrasti, 504 h, visual assessment about 3 weeks after treatment vs untreated controls
In short: (§1)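 Sandy loam, greenhouse; treatment 2–3 weeks after sowing, one-leaf stage. Aqueous suspension or emulsion from WP/EC sprayed on foliage (600–800 l/ha, 0.2% wetting agent). Readout: visual % action, ~3 weeks.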

AVEFA [2] = assay: Pre-emergence herbicidal action against AVEFA; assay type: in vivo, Avena fatua; settings: Avena fatua, pre-emergence, 504 h; 320 g/ha; scored visually after 3 weeks, 100% = plants have died, 0% = like control plants
In short: (§2)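 Seeds sown in sandy loam, soil-covered; compound sprayed on soil surface pre-emergence. Application: WP/EC, 600–800 l/ha, 0.2% wetting agent. Readout: visual % damage at 3 weeks.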

AMARE [3] = assay: Pre-emergence herbicidal action against AMARE; assay type: in vivo, Amaranthus retroflexus; settings: Amaranthus retroflexus, 504 h, 100% = plants have died, 0% = like control plants
In short: as §2

VIOTR [4] = assay: Pre-emergence herbicidal action against VIOTR; assay type: in vivo, Viola tricolor; settings: Viola tricolor, 504 h, dosage 320 g/ha
In short: as §2

CYPES [5] = assay: Pre-emergence herbicidal action against CYPES; assay type: in vivo; settings: Cyperus esculentus, 504 h
Description: Seeds of monocotyledonous and dicotyledonous weed plants and crop plants are laid out in sandy loam soil in wood-fiber pots and covered with soil. The compounds of the invention, formulated in the form of wettable powders (WP) or as emulsion concentrates (EC), are then applied to the surface of the covering soil in the form of an aqueous suspension or emulsion at a water application rate equivalent to 600 to 800 l/ha, with addition of 0.2% wetting agent. After the treatment, the pots are placed in a greenhouse and kept under good growth conditions for the trial plants. The damage to the test plants is scored visually after a test period of 3 weeks by comparison with untreated controls (herbicidal activity in percent (%): 100% activity=the plants have died, 0% activity=like control plants). […] The tables below illustrate, in an illustrative manner, the post-emergence herbicidal action of the compounds of the invention, the herbicidal activity being stated in percent.

CYPES [6] = assay: Post-emergence herbicidal action against CYPES; assay type: in vivo, Cyperus esculentus; settings: 80 g/ha, visual assessment about 3 weeks after treatment, 100% = plants have died, 0% = like control plants
Experimental: Seeds of monocotyledonous and dicotyledonous weed and crop plants are laid out in sandy loam soil in wood-fiber pots, covered with soil and cultivated in a greenhouse under good growth conditions. 2 to 3 weeks after sowing, the test plants are treated at the one-leaf stage. The compounds of the invention, formulated in the form of wettable powders (WP) or as emulsion concentrates (EC), are then sprayed onto the green parts of the plants in the form of an aqueous suspension or emulsion at a water application rate equivalent to 600 to 800 l/ha, with addition of 0.2% wetting agent. After the test plants have been left to stand in the greenhouse under optimal growth conditions for about 3 weeks, the action of the preparations is assessed visually in comparison to untreated controls (herbicidal action in percent (%): 100% activity=the plants have died, 0% activity=like control plants). […] The tables below illustrate, in an illustrative manner, the post-emergence herbicidal action of the compounds of the invention, the herbicidal activity being stated in percent.

HORMU [7] = assay: Pre-emergence herbicidal action against HORMU; assay type: in vivo, Hordeum murinum; settings: Hordeum murinum, 504 h; 320 g/ha, pre-emergence
In short: as §2

VIOTR [8] = assay: Post-emergence herbicidal action against VIOTR; assay type: in vivo, Viola tricolor; settings: Viola tricolor, 504 h
In short: as §1

SETVI [9] = assay: Pre-emergence herbicidal action against SETVI; assay type: in vivo, Setaria viridis; settings: Setaria viridis, 504 h, dosage 320 g/ha
In short: as §2

ABUTH [10] = assay: Pre-emergence herbicidal action against ABUTH; assay type: in vivo, Abutilon theophrasti; settings: Abutilon theophrasti, 504 h
In short: as §2

STEME [11] = assay: Pre-emergence herbicidal action against STEME; assay type: in vivo, Stellaria media; settings: Stellaria media, 504 h, dosage 320 g/ha
In short: as §2

SETVI [12] = assay: Post-emergence herbicidal action against SETVI; assay type: in vivo, Setaria viridis; settings: Setaria viridis, 504 h
In short: as §1

ALOMY [13] = assay: Post-emergence herbicidal action against ALOMY; assay type: in vivo, Alopecurus myosuroides; settings: Alopecurus myosuroides, 504 h, dosage 80 g/ha, visual assessment about 3 weeks after treatment vs untreated controls
In short: as §1

HORMU [14] = assay: Post-emergence herbicidal action against HORMU; assay type: in vivo, Hordeum murinum; settings: Hordeum murinum, 504 h, dosage 80 g/ha
In short: as §1

ECHCG [15] = assay: Pre-emergence herbicidal action against ECHCG; assay type: in vivo, Echinochloa crus-galli; settings: Echinochloa crus-galli, 504 h, 320 g/ha
In short: as §2

ECHCG [16] = assay: Post-emergence herbicidal action against ECHCG; assay type: in vivo, Echinochloa crus-galli; settings: Echinochloa crus-galli, 504 h, dosage 80 g/ha
In short: as §1

STEME [17] = assay: Post-emergence herbicidal action against STEME; assay type: in vivo, Stellaria media; settings: Stellaria media, 504 h, 80 g/ha
In short: as §1

AVEFA [18] = assay: Post-emergence herbicidal action against AVEFA; assay type: in vivo, Avena fatua; settings: Avena fatua, 504 h, 80 g/ha, visual assessment about 3 weeks after treatment, 100% = plants have died, 0% = like control plants
In short: as §1

VERPE [19] = assay: Pre-emergence herbicidal action against VERPE; assay type: in vivo, Veronica persica; settings: Veronica persica, 504 h, dosage 320 g/ha
In short: as §2

VERPE [20] = assay: Post-emergence herbicidal action against VERPE; assay type: in vivo, Veronica persica; settings: Veronica persica, 504 h
In short: as §1

AMARE [21] = assay: Post-emergence herbicidal action against AMARE; assay type: in vivo, Amaranthus retroflexus; settings: Amaranthus retroflexus, 504 h, 80 g/ha, visual assessment about 3 weeks after treatment, 100% = plants have died, 0% = like control plants
In short: as §1

ALOMY [22] = assay: Pre-emergence herbicidal action against ALOMY; assay type: in vivo, Alopecurus myosuroides; settings: Alopecurus myosuroides, pre-emergence, 504 h; 320 g/ha; scored visually after 3 weeks, 100% = plants have died, 0% = like control plants
In short: as §2

MATIN = assay: Pre-emergence herbicidal action against MATIN; assay type: in vivo, Matricaria inodora; settings: Tripleurospermum inodorum, 504 h, dosage 320 g/ha
In short: as §2

Structure (SMILES): Cc1nnc(NC(=O)c2ccc(C(F)(F)F)c(C(N)=O)c2Cl)o1 [Example 6-253]
- pest or weed control at 5 g/ha (ABUTH [1]; dosage 5 g/ha): 100%
- pest or weed control at 20 g/ha (ABUTH [1]; dosage 20 g/ha): 100%
- pest or weed control at 80 g/ha (ABUTH [1]; dosage 80 g/ha): 100%
- pest or weed control at 320 g/ha (AVEFA [2]): 90%
- pest or weed control at 80 g/ha (AMARE [3]; 80 g/ha, scored visually after 3 weeks vs untreated controls): 80%
- pest or weed control at 320 g/ha (AMARE [3]; 320 g/ha, scored visually after 3 weeks): 90%
- pest or weed control at 320 g/ha (VIOTR [4]): 100%
- pest or weed control at 20 g/ha (CYPES [5]; 20 g/ha, scored visually after 3 weeks, 100% = plants have died, 0% = like control plants): 80%
- pest or weed control at 80 g/ha (CYPES [5]; 80 g/ha, scored visually after 3 weeks, 100% = plants have died, 0% = like control plants): 90%
- pest or weed control at 320 g/ha (CYPES [5]; 320 g/ha): 100%
- Post-emergence action at 80 g/ha against CYPES in % (CYPES [6]): 80%
- pest or weed control at 320 g/ha (HORMU [7]): 90%
- pest or weed control at 20 g/ha (VIOTR [8]; 20 g/ha): 80%
- pest or weed control at 80 g/ha (VIOTR [8]; 80 g/ha): 80%
- pest or weed control at 320 g/ha (SETVI [9]): 100%
- pest or weed control at 80 g/ha (ABUTH [10]; 80 g/ha, scored visually after 3 weeks vs untreated controls (100% = plants have died, 0% = like control plants)): 90%
- pest or weed control at 320 g/ha (ABUTH [10]; Dosage: 320 g/ha, scored visually after 3 weeks, 100% = plants have died, 0% = like control plants): 100%
- pest or weed control at 320 g/ha (STEME [11]): 100%
- pest or weed control at 20 g/ha (SETVI [12]; dosage 20 g/ha): 90%
- pest or weed control at 80 g/ha (SETVI [12]; dosage 80 g/ha): 100%
- pest or weed control at 80 g/ha (ALOMY [13]): 80%
- pest or weed control at 80 g/ha (HORMU [14]): 90%
- pest or weed control at 320 g/ha (ECHCG [15]): 100%
- pest or weed control at 80 g/ha (ECHCG [16]): 90%
- pest or weed control at 80 g/ha (STEME [17]): 90%
- pest or weed control at 80 g/ha (AVEFA [18]): 80%
- pest or weed control at 320 g/ha (VERPE [19]): 100%
- pest or weed control at 20 g/ha (VERPE [20]; 20 g/ha): 80%
- pest or weed control at 80 g/ha (VERPE [20]; 80 g/ha): 90%
- pest or weed control at 80 g/ha (AMARE [21]): 100%
- pest or weed control at 320 g/ha (ALOMY [22]): 90%
- pest or weed control at 320 g/ha (MATIN): 100%
